# Measurements from paper PMC11796366 (mBio, 2024).
# Target: T1, BumS (WT BumS-Myc-6XHis) (Campylobacter jejuni, UniProt Z9AJU0DEG1)
# T1 construct: gene CJJ81176_1484; second to penultimate codon, C-terminal Myc-6XHis tag kept (pBAD/Myc-HisA, pNR251), expressed in E. coli TOP10; cytoplasmic, N-terminal PAS domain (about residues 1-120)
# T1 sequence (Z9AJU0DEG1 2-403): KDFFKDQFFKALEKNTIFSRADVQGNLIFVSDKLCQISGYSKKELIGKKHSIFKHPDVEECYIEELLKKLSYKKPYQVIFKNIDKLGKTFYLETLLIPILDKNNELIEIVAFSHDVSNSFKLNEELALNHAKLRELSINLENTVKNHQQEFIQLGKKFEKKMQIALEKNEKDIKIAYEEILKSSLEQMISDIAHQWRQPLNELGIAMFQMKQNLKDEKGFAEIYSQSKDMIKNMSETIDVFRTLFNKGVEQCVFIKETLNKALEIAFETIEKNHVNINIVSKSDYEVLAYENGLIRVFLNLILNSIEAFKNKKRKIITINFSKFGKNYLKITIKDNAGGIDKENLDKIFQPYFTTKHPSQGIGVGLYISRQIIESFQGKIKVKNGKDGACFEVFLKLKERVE
# Experiment: CD thermal melt at […] nm
# Format: binding
# Details: […]; […] HEPES, […] NaSO4, […] glycerol; […]-95 °C
compound,measurement,value
CC(C)C(=O)O [isobutyrate],"Tm,app",isobutyrate and isovalerate had a net destabilizing effect on the thermostability of BumS
